Measurements: article PMC12389196, “Novel Indole-Based Sulfonylhydrazones as Potential Anti-Breast Cancer Agents: Synthesis, In Vitro Evaluation, ADME, and QSAR Studies” (Pharmaceuticals, 2025)
Several values for one entry are separate records, joined by “and”; a condition that tells them apart may be missing. Identical values can stand only once.

Tests used:
[1] = test system: MCF-7 (ER-positive breast adenocarcinoma) cells; set-up: method as in PMID 36903304; settings: previous study ref 48; cited from earlier work
[2] = test system: MCF-7 (ER-positive breast adenocarcinoma) cells; assay: MTT assay, antiproliferative activity on MCF-7 cells; type: cell-based, human; settings: for IC50: MTT, 72 h; for SI MCF-7 (selectivity index): SI = IC50 on Neuro-2a/IC50 on MCF-7
Method: (§1) The antiproliferative activity of the novel indolyl-methylidene-substituted phenylsulfonylhydrazones (3a–j) and the bis-indole hydrazine derivative (4) was evaluated against two breast cancer cell lines: MCF-7 and MDA-MB-231. The MCF-7 cell line, derived from human breast adenocarcinoma, expresses estrogen receptor alpha (ER-α). In contrast, the MDA-MB-231 cell line represents triple-negative breast cancer (TNBC) and lacks expression of estrogen, progesterone, and HER2 receptors. Antiproliferative activity was expressed as IC50, the concentration (in μM) required to inhibit 50% of cell growth, and ligand efficiency (LE), calculated as LE = −log(IC50)/number of heavy atoms. To assess the selectivity index (SI = IC50 on Neuro-2a/IC50 on breast cancer cell line), the compounds were also tested on Neuro-2a cells, a mouse neuroblastoma cell line derived from brain tissue.
(§2) The in vitro antineoplastic activity of the synthesized compounds was tested against human breast cancer cell lines, comprising the triple-negative MDA-MB-231 and the […] MCF-7. Neuroblastoma mouse cells Neuro-2a were used as a non-breast cancer cell line reference. All cell lines were obtained from the German Collection of Microorganisms and Cell Cultures (DSMZ, Braunschweig, Germany) and cultivated and maintained in accordance with the supplier’s protocols. The cells were cultured in RPMI 1640 growth medium (Gibco, Thermo Fisher Scientific, Waltham, MA, USA), supplemented with 10% fetal bovine serum (FBS; Gibco, Thermo Fisher Scientific, Waltham, MA, USA) and 5% L-glutamine (Gibco, Thermo Fisher Scientific, Waltham, MA, USA), and incubated at standard conditions of 37 °C in a humidified environment with 5% CO2.
(§3) The cytostatic activity of the tested compounds was evaluated using the Mosmann MTT assay—a well-established colorimetric method for assessing cell viability. This assay measures mitochondrial enzyme activity by reducing the yellow dye MTT (3-(4,5-dimethylthiazol-2-yl)-2,5-diphenyltetrazolium bromide) into violet formazan crystals. The exponentially growing cells were harvested and seeded into 96-well plates at a density of 1.5 × 10^5 cells per well in 100 μL of medium and incubated for 24 h. The cell cultures were then treated with various concentrations (200–6.25 μM) of the tested compounds and incubated for 72 h. Cell viability was quantified as a percentage (%) relative to the untreated control, which was set at 100% viability.
(§4) The experimental data were analyzed using nonlinear regression in GraphPad Prism® software, version 9.0. Semi-logarithmic dose–response curves were generated, and the half-maximal inhibitory concentrations (IC50) of the tested compounds were calculated for each tumor cell line.

[3] = test system: Neuro-2a (mouse neuroblastoma) cells; assay: MTT assay on Neuro-2a reference cells; type: cell-based; settings: N2a, 72 h
Method: as §1, §2, §3, §4

[4] = test system: MDA-MB-231 (triple-negative breast cancer) cells; assay: MTT assay, antiproliferative activity on MDA-MB-231 cells; type: cell-based, human; settings: for IC50: MTT, 72 h; for SI MDA-MB-231 (selectivity index): SI = IC50 on Neuro-2a/IC50 on MDA-MB-231
Method: as §1, §2, §3, §4

Compound	selectivity index MCF-7, earlier series of arylsulfonylhydrazones [1]	IC50 ([2]; Homo sapiens, MCF7, 72 h)	SI MCF-7 (selectivity index) [2]	IC50 [3]	IC50 ([4]; Homo sapiens, MDA-MB-231, 72 h)	SI MDA-MB-231 (selectivity index) [4]	IC50 [2]	IC50 [4]
CC(=O)n1cc(C=NNS(=O)(=O)c2ccc(C)cc2)c2ccccc21 [1d, N′-[(1-acetyl-1H-indol-3-yl)methylidene]-4-methylbenzenesulfonohydrazide]	≤ 46							
COc1ccc(S(=O)(=O)N/N=C/c2cn(C(C)=O)c3ccccc23)cc1 [3a, N′-[(E)-(1-Acetyl-1H-indol-3-yl)methylidene]-4-methoxybenzene-1-sulfonohydrazide]		4.3 ± 1.3 µM	13.5 and 13.488	58 ± 8.2 µM	20.1 ± 3.4 µM	2.886		
CC(=O)n1cc(/C=N/NS(=O)(=O)c2c(C)cc(C)cc2C)c2ccccc21 [3b, N′-[(E)-(1-Acetyl-1H-indol-3-yl)methylidene]-2,4,6-trimethylbenzene-1-sulfonohydrazide]		4 ± 0.9 µM	20.975	83.9 ± 9.4 µM	16.3 ± 4.1 µM	5.147		
COc1ccc(S(=O)(=O)N/N=C/c2c[nH]c3ccc(Br)cc23)cc1 [3c, N′-[(E)-(5-Bromo-1H-indol-3-yl)methylidene]-4-methoxybenzene-1-sulfonohydrazide]		5.2 ± 1 µM	3.577	18.6 ± 3.9 µM	17.7 ± 2.3 µM	1.051		
Cc1cc(C)c(S(=O)(=O)N/N=C/c2c[nH]c3ccc(Br)cc23)c(C)c1 [3d, N′-[(E)-(5-Bromo-1H-indol-3-yl)methylidene]-2,4,6-trimethylbenzene-1-sulfonohydrazide]		4.2 ± 0.7 µM	5.000	21 ± 2.1 µM	19.9 ± 1.6 µM	1.055		
Cc1ccc(S(=O)(=O)N/N=C/c2c[nH]c3ccc(Br)cc23)cc1 [3e, N′-[(E)-(5-Bromo-1H-indol-3-yl)methylidene]-4-methylbenzene-1-sulfonohydrazide]		29.6 ± 5.1 µM	1.176	34.8 ± 5.7 µM	18.7 ± 2.7 µM	1.861		
O=S(=O)(N/N=C/c1c[nH]c2ccc(Br)cc12)c1ccccc1 [3f, N′-[(E)-(5-Bromo-1H-indol-3-yl)methylidene]benzene-1-sulfonohydrazide]		< 6 µM	1.847	10.9 ± 1.8 µM		2.319	5.9 ± 1.4 µM	
COc1ccc(S(=O)(=O)N/N=C/c2c[nH]c3ccc(Cl)cc23)cc1 [3g, N′-[(E)-(5-Chloro-1H-indol-3-yl)methylidene]-4-methoxybenzene-1-sulfonohydrazide]		12.7 ± 2.8 µM	2.063	26.2 ± 3.5 µM	14.7 ± 1.8 µM	1.782		
Cc1cc(C)c(S(=O)(=O)N/N=C/c2c[nH]c3ccc(Cl)cc23)c(C)c1 [3h, N′-[(E)-(5-Chloro-1H-indol-3-yl)methylidene]-2,4,6-trimethylbenzene-1-sulfonohydrazide]		15.2 ± 2.1 µM	1.579	24 ± 1.9 µM	18.1 ± 2.5 µM	1.326		
Cc1ccc(S(=O)(=O)N/N=C/c2c[nH]c3ccc(Cl)cc23)c(C)c1 [3i, N′-[(E)-(5-Chloro-1H-indol-3-yl)methylidene]-2,4-dimethylbenzene-1-sulfonohydrazide]		12.4 ± 3.2 µM	1.282	15.9 ± 1.6 µM	< 10 µM	1.674		9.5 ± 1.5 µM
Cc1ccc(S(=O)(=O)N/N=C/c2c[nH]c3ccc(Cl)cc23)cc1C [3j, N′-[(E)-(5-Chloro-1H-indol-3-yl)methylidene]-3,4-dimethylbenzene-1-sulfonohydrazide]		11.5 ± 2.3 µM	3.087	35.5 ± 5.3 µM	13.3 ± 2.2 µM	2.669		
N.N.[Cl][Pt][Cl] [Cisplatin, reference compound]							50.3 ± 6.5 µM	63.4 ± 7.2 µM
Clc1ccc2[nH]cc(/C=N/N=C/c3c[nH]c4ccc(Cl)cc34)c2c1 [compound 4, 3,3′-[(1E,2E)-hydrazine-1,2-diylidenedi(E)methylylidene]bis(5-chloro-1H-indole)]		21.4 ± 4.9 µM	2.509	53.7 ± 3.1 µM	66 ± 7.4 µM	0.814		
N′-[(1-acetyl-1H-indol-3-yl)methylidene]benzenesulfonohydrazide [1c]	up to 40							
